ChEMBL document CHEMBL5257047, “Synthesis and Anti-Inflammatory Activity of the Natural Cyclooxygenase-2 Inhibitor Axinelline A and Its Analogues” (J Nat Prod, 2023)
The source made the active and inactive calls. The calls are words filed in the database; no cut-off is given here.

Columns and labels:
[1] = target: T1, Prostaglandin G/H synthase 1 (Ovis aries) (UniProt P05979); assay: Inhibition of ovine COX-1 using arachidonic acid as substrate at 10 uM preincubated with compound for 5 mins followed by substrate addition and measured after 2 mins by fluorescence spectrum analysis; conditions: time 7.0 min
T1 sequence (whole entry): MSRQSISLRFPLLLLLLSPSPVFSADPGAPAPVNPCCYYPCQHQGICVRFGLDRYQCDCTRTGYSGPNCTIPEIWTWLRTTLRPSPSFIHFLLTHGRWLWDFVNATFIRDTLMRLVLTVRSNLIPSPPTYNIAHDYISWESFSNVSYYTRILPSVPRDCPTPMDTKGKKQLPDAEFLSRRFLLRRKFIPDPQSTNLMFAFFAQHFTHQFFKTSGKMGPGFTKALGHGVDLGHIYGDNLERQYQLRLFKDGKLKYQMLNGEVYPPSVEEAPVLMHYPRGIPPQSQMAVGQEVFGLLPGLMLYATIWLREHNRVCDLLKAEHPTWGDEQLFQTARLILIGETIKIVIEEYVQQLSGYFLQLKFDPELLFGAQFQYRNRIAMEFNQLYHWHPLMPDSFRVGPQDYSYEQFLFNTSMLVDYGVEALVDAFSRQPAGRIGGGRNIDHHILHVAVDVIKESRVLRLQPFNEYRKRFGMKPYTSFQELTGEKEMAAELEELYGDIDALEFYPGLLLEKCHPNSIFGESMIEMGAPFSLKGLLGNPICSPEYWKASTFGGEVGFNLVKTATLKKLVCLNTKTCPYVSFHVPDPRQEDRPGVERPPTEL

[2] = target: T2, Prostaglandin G/H synthase 2 (Homo sapiens) (UniProt P35354); assay: Inhibition of recombinant human COX-2 using arachidonic acid as substrate at 10 uM preincubated with compound for 5 mins followed by substrate addition and measured after 2 mins by fluorescence spectrum analysis; conditions: time 7.0 min
T2 sequence (whole entry): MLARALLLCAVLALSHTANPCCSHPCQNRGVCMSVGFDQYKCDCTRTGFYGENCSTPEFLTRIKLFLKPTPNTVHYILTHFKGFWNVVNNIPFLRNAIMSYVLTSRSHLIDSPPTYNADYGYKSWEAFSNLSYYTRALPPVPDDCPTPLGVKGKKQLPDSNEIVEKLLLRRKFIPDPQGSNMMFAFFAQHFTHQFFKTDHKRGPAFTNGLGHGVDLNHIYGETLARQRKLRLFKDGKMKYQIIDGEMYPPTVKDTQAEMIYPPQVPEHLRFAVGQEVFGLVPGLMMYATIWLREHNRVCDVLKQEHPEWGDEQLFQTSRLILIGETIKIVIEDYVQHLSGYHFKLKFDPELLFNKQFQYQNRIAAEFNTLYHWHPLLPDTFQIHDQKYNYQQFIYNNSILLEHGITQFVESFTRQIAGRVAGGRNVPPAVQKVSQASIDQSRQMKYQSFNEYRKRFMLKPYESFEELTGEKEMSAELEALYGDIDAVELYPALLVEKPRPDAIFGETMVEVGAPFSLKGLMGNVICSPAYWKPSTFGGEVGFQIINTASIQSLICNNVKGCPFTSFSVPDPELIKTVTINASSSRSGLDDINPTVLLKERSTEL

[3] = tested on: RAW264.7; assay: Anti-inflammatory activity in mouse RAW264.7 cells assessed as decrease in LPS-induced TNF-alpha production incubated for 24 hrs by ELISA analysis; type: functional, cell-based; conditions: dose 2-30 µM
[4] = tested on: RAW264.7; assay: Effect of NF-kappaB protein level in LPS-stimulated mouse RAW264.7 cells at 2 to 30 uM preincubated with compound for 1 hrs followed by LPS-stimulation and measured after 30 mins by Western blot analysis; type: functional, cell-based; conditions: dose 2-30 µM, time 1.5 hrs
[5] = tested on: RAW264.7; assay: Anti-inflammatory activity in mouse RAW264.7 cells assessed as decrease in LPS-induced COX-2 protein expression incubated for 24 hrs by Western blot analysis; type: functional, cell-based; conditions: dose 2-10 µM
[6] = tested on: RAW264.7; assay: Anti-inflammatory activity in mouse RAW264.7 cells assessed as decrease in LPS-induced NO production incubated for 24 hrs by Griess reagent based assay; type: functional, cell-based; conditions: dose 2-30 µM
[7] = tested on: L929; assay: Cytotoxicity against mouse L929 cells assessed as reduction in cell survival at 10 uM incubated for 24 hrs by MTT assay; type: toxicity, cell-based; conditions: l929, 24 h
[8] = tested on: L02; assay: Cytotoxicity against human L02 cells assessed as reduction in cell survival upto 50 uM incubated for 48 to 72 hrs by MTT assay; type: toxicity, cell-based; conditions: l02, 50 µM, time 48-72 hrs
[9] = tested on: RAW264.7; assay: Inhibition of NF-kappaB phosphorylation in LPS-stimulated mouse RAW264.7 cells at 2 to 30 uM preincubated with compound for 1 hrs followed by LPS-stimulation and measured after 30 mins by Western blot analysis; type: cell-based; conditions: dose 2-30 µM, time 1.5 hrs
[10] = tested on: RAW264.7; assay: Anti-inflammatory activity in mouse RAW264.7 cells assessed as decrease in LPS-induced IL-1beta production incubated for 24 hrs by ELISA analysis; type: functional, cell-based; conditions: dose 2-30 µM
[11] = tested on: L929; assay: Cytotoxicity against mouse L929 cells assessed as reduction in cell survival upto 50 uM incubated for 48 to 72 hrs by MTT assay; type: toxicity, cell-based; conditions: l929, 50 µM, time 48-72 hrs
[12] = tested on: RAW264.7; assay: Anti-inflammatory activity in mouse RAW264.7 cells assessed as decrease in LPS-induced IL-6 production incubated for 24 hrs by ELISA analysis; type: functional, cell-based; conditions: dose 2-30 µM
[13] = tested on: RAW264.7; assay: Cytotoxicity against mouse RAW264.7 cells assessed as reduction in cell survival upto 50 uM incubated for 48 to 72 hrs by MTT assay; type: toxicity, cell-based; conditions: raw264.7, 50 µM, time 48-72 hrs
[14] = target: T3, Prostaglandin G/H synthase 2 (Homo sapiens, UniProt P35354); assay: Inhibition of recombinant human COX-2 using arachidonic acid as substrate preincubated with compound for 5 mins followed by substrate addition and measured after 2 mins by fluorescence spectrum analysis
T3 sequence (P35354 whole entry): T2 sequence (whole entry)

[15] = target: T4, Prostaglandin G/H synthase 2 (Ovis aries, UniProt P79208); assay: Inhibition of ovine COX-2 assessed as reduction in PGF2alpha production by enzyme immunoassay
T4 sequence (P79208 whole entry): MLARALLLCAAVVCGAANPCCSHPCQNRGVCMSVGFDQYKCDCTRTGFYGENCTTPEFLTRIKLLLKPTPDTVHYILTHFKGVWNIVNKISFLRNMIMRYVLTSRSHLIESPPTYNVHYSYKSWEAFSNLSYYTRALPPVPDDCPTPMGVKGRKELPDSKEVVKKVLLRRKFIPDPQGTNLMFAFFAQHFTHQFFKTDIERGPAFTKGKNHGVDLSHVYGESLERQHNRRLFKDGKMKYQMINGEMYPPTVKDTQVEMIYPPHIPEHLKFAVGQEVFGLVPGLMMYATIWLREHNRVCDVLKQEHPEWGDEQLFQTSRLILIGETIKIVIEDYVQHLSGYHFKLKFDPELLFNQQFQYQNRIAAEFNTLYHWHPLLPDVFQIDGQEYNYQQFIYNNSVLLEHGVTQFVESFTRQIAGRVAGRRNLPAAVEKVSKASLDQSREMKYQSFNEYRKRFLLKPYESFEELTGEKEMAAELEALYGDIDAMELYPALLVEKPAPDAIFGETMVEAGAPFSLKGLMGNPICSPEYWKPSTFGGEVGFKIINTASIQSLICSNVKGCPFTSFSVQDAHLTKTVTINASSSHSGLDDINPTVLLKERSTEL

[16] = target: T5, Prostaglandin G/H synthase 2 (Mus musculus) (UniProt Q05769); assay: Inhibition of COX-2 in mouse RAW264.7 cells assessed as suppression of LPS-induced PGE2 production at 2 to 30 uM incubated for 24 hrs by ELISA analysis; type: cell-based; conditions: dose 2-30 µM
T5 sequence (whole entry): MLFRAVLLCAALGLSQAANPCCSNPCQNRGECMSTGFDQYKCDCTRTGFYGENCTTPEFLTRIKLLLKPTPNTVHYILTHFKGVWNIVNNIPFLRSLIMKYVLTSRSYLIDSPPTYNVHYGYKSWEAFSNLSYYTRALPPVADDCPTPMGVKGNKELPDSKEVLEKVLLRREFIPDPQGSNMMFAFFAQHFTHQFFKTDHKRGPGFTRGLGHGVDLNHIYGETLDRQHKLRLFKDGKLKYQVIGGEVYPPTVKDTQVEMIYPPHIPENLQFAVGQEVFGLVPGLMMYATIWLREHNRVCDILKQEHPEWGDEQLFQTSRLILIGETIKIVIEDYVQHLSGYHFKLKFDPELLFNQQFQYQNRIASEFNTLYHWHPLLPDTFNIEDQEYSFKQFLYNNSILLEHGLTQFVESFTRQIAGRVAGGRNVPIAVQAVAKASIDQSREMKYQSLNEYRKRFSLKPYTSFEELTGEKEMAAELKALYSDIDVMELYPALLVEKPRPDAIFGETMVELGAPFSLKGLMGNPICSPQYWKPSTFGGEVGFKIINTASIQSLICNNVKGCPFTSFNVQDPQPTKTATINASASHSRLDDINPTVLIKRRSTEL

[17] = tested on: RAW264.7; assay: Cytotoxicity against mouse RAW264.7 cells assessed as reduction in cell survival at 10 uM incubated for 24 hrs by MTT assay; type: toxicity, cell-based; conditions: raw264.7, 24 h
[18] = tested on: L02; assay: Cytotoxicity against human L02 cells assessed as reduction in cell survival at 10 uM incubated for 24 hrs by MTT assay; type: toxicity, cell-based; conditions: l02, 24 h
[19] = target: T6, Prostaglandin G/H synthase 1 (Ovis aries, UniProt P05979); assay: Inhibition of ovine COX-1 using arachidonic acid as substrate preincubated with compound for 5 mins followed by substrate addition and measured after 2 mins by fluorescence spectrum analysis
T6 sequence (P05979 whole entry): T1 sequence (whole entry)

[20] = target: T7, NF-kappa-B inhibitor alpha (Mus musculus) (UniProt Q9Z1E3); assay: Inhibition of IkappaBalpha phosphorylation in LPS-stimulated mouse RAW264.7 cells preincubated with compound for 1 hrs followed by LPS-stimulation and measured after 30 mins by Western blot analysis; type: cell-based; conditions: dose 2-30 µM, time 1.5 hrs
T7 sequence (whole entry): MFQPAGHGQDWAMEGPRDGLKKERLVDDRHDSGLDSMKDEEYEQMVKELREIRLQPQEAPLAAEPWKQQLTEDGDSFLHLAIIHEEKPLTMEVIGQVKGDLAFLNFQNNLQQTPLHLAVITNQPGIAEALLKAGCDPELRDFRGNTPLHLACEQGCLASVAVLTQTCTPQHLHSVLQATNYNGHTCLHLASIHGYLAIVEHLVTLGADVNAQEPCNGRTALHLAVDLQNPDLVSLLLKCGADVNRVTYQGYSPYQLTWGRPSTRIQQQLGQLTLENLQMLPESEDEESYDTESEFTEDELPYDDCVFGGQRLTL

[21] = tested on: RAW264.7; assay: Inhibition of IKK phosphorylation in LPS-stimulated mouse RAW264.7 cells preincubated with compound for 1 hrs followed by LPS-stimulation and measured after 30 mins by Western blot analysis; type: cell-based; conditions: dose 2-30 µM, time 1.5 hrs
[22] = tested on: RAW264.7; assay: Anti-inflammatory activity in mouse RAW264.7 cells assessed as decrease in LPS-induced iNOS protein expression incubated for 24 hrs by Western blot analysis; type: functional, cell-based; conditions: dose 2-10 µM

SMILES: CCOC(=O)[C@H](CO)NC(=O)c1ccccc1
- inhibition [1]: Active
- inhibition [2]: Active

SMILES: CCOC(=O)[C@H](CO)NC(=O)c1ccccc1O
- inhibition [1]: Active
- inhibition [2]: Active

SMILES: CCOC(=O)[C@H](CO)NC(=O)c1ccc(O)cc1
- inhibition [1]: Active
- inhibition [2]: Active

SMILES: CCOC(=O)[C@H](CO)NC(=O)c1cccc(O)c1O
- Activity [3]: Dose-Dependent Effect
- Activity [4]: inactive
- Activity [5]: Dose-Dependent Effect
- Activity [6]: Dose-Dependent Effect
- Activity [7]: Non-Toxic
- Activity [8]: Toxic
- inhibition [9]: Active
- Activity [10]: Dose-Dependent Effect
- Activity [11]: Toxic
- Activity [12]: Dose-Dependent Effect
- Activity [13]: Toxic
- IC50 [14]: 2.22 µM
- IC50 [15]: 2.8 µM
- inhibition [16]: Active
- Activity [17]: Non-Toxic
- Activity [18]: Non-Toxic
- IC50 [19]: 8.89 µM
- inhibition [20]: Dose-Dependent Effect
- inhibition [21]: Dose-Dependent Effect
- Activity [22]: Dose-Dependent Effect

SMILES: CCOC(=O)[C@H](CO)NC(=O)c1cccc(O)c1
- inhibition [1]: Active
- inhibition [2]: Active
